# Entries after “also recorded” stand apart in the source; their conditions may differ.
# Key:
# stored RBC = experiment: Membrane complex lipid reacylation in stored RBC ([1-14C]palmitic acid incorporation); type: cell-based, human
# Experimental: Analysis of membrane complex lipid reacylation in stored RBC. Blood sample was withdrawn from stored RCC unit through a sampling site coupler with a syringe, and the sample processed immediately. This was done in a laminar flow hood under UV light. All the manipulations were conducted at 0-5° C. unless noted. RBC were washed two times with 4 vol. of cold 0.9% NaCl. Isolated RBC were once again washed with incubation buffer (NaCl 120 mM, KCl 5 mM, MgSO4 1 mM, NaH2PO4 1 mM, saccharose 40 mM, 5 mM glucose, Tris-HCl 10 mM, at pH 7.4) and resuspended in the same buffer at a final hematocrit of 5%. A Rotabath shaking bath at 37° C. was used for the incubations. RBC were incubated with the radioactive palmitic acid (10 μM) complexed to fatty acid free BSA (1.65 mg/ml), Incubations were ended by washing cells once with cold incubation buffer, three times with fatty acid free BSA 1% in incubation buffer, and finally once again with incubation buffer. RBC lipids were extracted from intact cells with the Rose & Oaklander procedure, J. Lipid Res. 6: 428-431 (1965). In order to prevent lipid oxidation, 0.1% butylated hydroxytoluene was added to the lipid extracts. Aliquots of the lipid extract were used for determination of lipid phosphorus content, and analyzed by two dimensional thin layer chromatography. Briefly, the chromatograms were developed using chloroform-methanol-28% ammonia (65:25:5) in the first dimension. The chromatograms were then developed using chloroform-acetone-methanol-acetic acid-water (6:8:2:2:1) in the second dimension. Phosphatidylcholine (PC), a phosphatidylethanolamine (PE), and phosphatidylserine were visualized by brief exposure of the plates to iodine and identified using standards as a reference. Individual phospholipid spots were scraped off into vials containing scintillation fluid and radioactivity was determined by liquid scintillation counting. The identification and analysis of radioactive PLC was carried out as recently described, Arduini et al., J. Biol. Chem. 267: 12673-81 (1992). Counting efficiency was evaluated by an external standard. […]
# [1] = tested on: prestorage-leuko-reduced platelet concentrates; experiment: Extended storage of prestorage-leuko-reduced random platelets (glycolysis and platelet quality tests); type: cell-based, human; conditions: 5 mM L-Carnitine, stored seven or eight days at 22° C.
# Experimental: Study Deign: Two ABO identical prestorage-leuko-reduced platelet concentrates produced by in-line filtration of platelet rich plasma (MedSep Inc., Corvina, Calif.) were pooled, then equally divided into two CLX (MedSep) containers. Either L-Carnitine (final concentration 5 mM) or saline was added to one bag of each pair of platelets. Platelets were stored for either seven or eight days at 22° C. on a flatbed agitator, then tested. Tests performed were pH, platelet count, supernatant glucose and lactate, surface p-selectin expression by flow cytometry, extent of shape change (ESC) and hypotonic shock response (HSR). Glucose consumption and lactate production were calculated as mM/10^12 platelets/day. Data were analyzed using paired t-tests.
# transfused stored RBC = experiment: In vivo post-transfusion measurements of 42-day stored RBC (51Cr/99Tc labeling); set-up: species or system human; conditions: RBC stored 42 days with 5 mM LC, reinfused into donor
# Source text: Subjects. The subject population was male or female research subjects between the ages of 18 to 65 years with no known mental or physical disability and taking no drugs that might affect RBC viability. Individuals were recruited who fulfilled the conventional allogeneic donor criteria as listed in the Code of Federal Register, Chapter 2, the Standards of the American Association of Blood Banks, and the Blood Services Directives of the American National Red Cross. The study was approved by the Institutional Review Board of the Medical College of Hampton Roads and the subjects gave informed consent prior to participation in the study.
# Each donor donated on two different occasions separated by 72 days, and was randomized to either the test or control arm on the first donation.
# In vivo Post-transfusion Measurements. After 42 days of storage, a sample was withdrawn and the stored cells labeled with Cr using standard methods. At the same time, to determine RBC mass, a fresh sample was collected from the donor for RBC labeling with 99 Tc. After labeling, 15 μCi ^51Cr-labeled stored cells and 15 μCi ^99Tc-labeled fresh cells were mixed and simultaneously infused. Blood samples (5 mL) were taken after the infusion at various time intervals for up to 35 days to calculate 24-hour % recovery and survival. The 24-hour % recovery was determined using either the single label method where log-linear regression of the radioactivity levels of samples taken at 5, 7.5, 10, and 15 min. was used to determine 0 time level, or by the double label method using donor RBC mass as determined by the ^99Tc measurement.
# Circulating lifespan of the transfused surviving Cr-labeled RBC was determined by samples taken at 24 hours and then twice weekly for up to 5 weeks. The radioactivity levels were corrected for a constant 1% elution per day. The data were fitted to a linear function with post-transfusion days as independent variable (x-axis) and the corrected Cr counts as dependent variable (y-axis). The lifespan of the RBC was then taken as the intersection of the fitted line with the x-axis. […]
# [2] = tested on: coagulase negative staphylococci; experiment: Bacterial growth in spiked extended-storage platelet concentrates; type: cell-based; conditions: for Bacterial growth: platelet concentrate
# Experimental: Study Methods: Two ABO identical prestorage-leuko-reduced platelet concentrates produced by in line filtration of platelet rich plasma (MedSep Corp. Covina, Calif.) were pooled, then equally divided into two CLX® (MedSep) bags. Either LC, to a final concentration of 5 mM, or saline (control) was added to one of each pair. Each container was spiked with 1 ml of a coagulase negative staphylococcal suspension on Day 0 to a final concentration between 1-48 CFU/mL. Samples were removed from each container aseptically on Day 3, Day 6 and either Day 7 or Day 8 for colony count. Data were analyzed by paired t tests.
# [3] = tested on: packed RBC (red cell concentrates); experiment: In vitro measurements on red cell concentrates stored in AS-3 with or without LC; type: cell-based, human; conditions: AS-3 with 5 mM LC
# Experimental: Blood storage system. Standard CP2D/AS-3 system (Miles, Inc.) Using polyvinyl chloride (PVC) plastic with diethyl-(n)hexyl-phthalate (DEHP) as plasticizer was used. For each test unit, 245 mg LC (in 1.1 mL pure, pyrogen-free solution in a sterilized glass bottle) was added to the container holding the AS-3 additive solution to give a final concentration of 5 mM. For the control units, 1.1 mL 0.9% NaCl was added to the AS-3 solution using the same conditions. Addition of LC or saline to the bags was performed by injecting through a sampling site coupler with a syringe. This was done in a laminar flow hood under UV light.
# Donation & Processing. Standard phlebotomy and blood-drawing methods were used with collection of approximately 450±50 mL whole blood. The whole blood unit was held between 4-8 hours at room temperature before processing. The unit was centrifuged using standard conditions and, after centrifugation, the supernatant plasma was expressed off, and the sedimented packed RBC resuspended either in the standard AS-3 solution (control) or the carnitine-containing AS-3 solution (test). The suspended RBC units were stored at 4° C. for 42 days.
# In Vitro Measurements: Measurements performed on pre-(0 day) and post-(42-day) samples included RBC ATP levels; total and supernatant hemoglobin; hematocrit (Hct); RBC, WBC, and platelet counts; RBC osmotic fragility; RBC morphology; lactate and glucose levels; supernatant potassium levels. These were performed using standard procedures as described previously, Heaton et al., Vox Sang 57:37-42 (1989).
# Statistical analysis. Paired t-test or routine non-parametric statistical analysis was performed on data from the in vivo and in vitro testing of the units to determine if there were any statistically significant differences (1-tail) in the means between the test and control units. Statistical significance was considered at a p value less than 0.05.
# [4] = tested on: standard (non-leuko-reduced) platelet concentrates; conditions: extended storage (>5 days; five-ten days); cited from earlier work
smiles,measurement,setting,value
"C[N+](C)(C)C[C@H](O)CC(=O)[O-] [L-Carnitine, L-carnitine]",Radioactive palmitate incorporation into membrane PE,"stored RBC; RBC stored in LC-containing AS-3, over storage up to 42 days",sudden increase of PE reacylation toward the end of the storage
same,Radioactive palmitate incorporated into PLC (palmitoyl-L-carnitine),"stored RBC; RBC stored in LC-containing AS-3, over storage up to 42 days, listed as LC",initial increase (with a nadir at the 3 week) followed by a rapid decrease; also recorded: greater than that found in red cells stored without LC
same,Radioactive palmitate incorporation into membrane PC,"stored RBC; RBC stored in LC-containing AS-3 vs AS-3 alone, over storage",no differences were observed between the two red cell preparations
same,ESC (extent of shape change),[1],12 ± 4%
same,Glucose concentration,[1],1.13 ± 0.2
same,HSR (hypotonic shock response),[1],50 ± 22%
same,Lactate production,[1],1.50 ± 0.2 mM/10^12 platelets/day
same,pH,[1],7.09 ± 0.1
same,P-selectin (% positive),[1]; flow cytometry,69 ± 9%
same,24 Hr % Recovery (single label),transfused stored RBC,84.0 ± 4.4%
same,24 Hr Recovery (double label),transfused stored RBC,83.9 ± 5.0
same,Survival (circulating lifespan of infused stored RBC),transfused stored RBC,96.1 ± 11.2 days
same,Bacterial growth,"[2]; Day 0, 5 mM L-Carnitine",1.12 ± 0.7 Log CFU/ml
same,Bacterial growth,"[2]; Day 3, 5 mM L-Carnitine",3.04 ± 0.7 Log CFU/ml
same,Bacterial growth,"[2]; Day 6, 5 mM L-Carnitine",3.88 ± 1.0 Log CFU/ml
same,Growth relative to controls,"[2]; Day 7/8, 5 mM L-Carnitine",33%
same,Bacterial growth,"[2]; Day 7/8, 5 mM L-Carnitine",4.60 ± 1.5 Log CFU/ml
same,ATP,"[3]; post-storage, 42 days at 4° C.",3.24 ± 0.38 μmol/g Hb
same,Glucose,"[3]; post-storage, 42 days at 4° C.",193 ± 40 mg/dL
same,Hemolysis,"[3]; post-storage, 42 days at 4° C.",0.30 ± 0.22 %
same,Lactate,"[3]; post-storage, 42 days at 4° C.",199 ± 37 mg/dL
same,Morphological Score,"[3]; post-storage, 42 days at 4° C.",68 ± 15
same,Osmotic Fragility,"[3]; post-storage, 42 days at 4° C.",50 ± 4%
same,Supernatant K+,"[3]; post-storage, 42 days at 4° C.",60 ± 3 mEq/L
same,pH,"[3]; post-storage, 42 days at 4° C.",6.32 ± 0.04
same,ATP,[3]; pre-storage (0 day),4.3 ± 0.4 μmol/g Hb
same,Osmotic Fragility,[3]; pre-storage (0 day),49 ± 4%
same,Supernatant Hb,[3]; pre-storage (0 day),26 ± 8 mg/dL
same,Supernatant K+,[3]; pre-storage (0 day),2.2 ± 0.3 mEq/L
same,Effect on glycolysis in stored platelet concentrates,[4],reduces glycosis; also recorded: reduces glycolysis

# Source: patent US7851142B2, “Method of reducing glycolysis in platelet concentrates using L-carnitine, alkanoyl carnitines and salts thereof” (priority 1997, dated 2010)
